Experimental data as given in article PMC11995724, “Antibiotic target discovery by integrated phenotypic and activity-based profiling of electrophilic fragments” (Cell chemical biology, 2025).

Assay: in vitro
Settings: human, hek293t cells

Compound | viability at 48 h, 25 µM
O=C(CCl)NCCN1C(=O)SC(=Cc2ccccc2F)C1=O [4-A10, 2-chloro-N-(2-{5-[(2-fluorophenyl)methylidene]-2,4-dioxo-1,3-thiazolidin-3-yl}ethyl)acetamide] | -0.106%
Cc1nc(-c2cccc(NC(=O)CCl)c2)cs1 [5-K17, 2-chloro-N-[3-(2-methyl-1,3-thiazol-4-yl)phenyl]acetamide] | 13.2%
CS(=O)(=O)N1CCCc2cc(C(=O)CCl)ccc21 [10-H19, 2-chloro-1-(1-methanesulfonyl-1,2,3,4-tetrahydroquinolin-6-yl)ethan-1-one] | 72%
C=CCNC(=O)C(C#N)=Cc1cccc(O)c1 [9-B09, 2-cyano-3-(3-hydroxyphenyl)-N-(prop-2-en-1-yl)prop-2-enamide] | 113%
C=CC(=O)NCCc1ccc(S(C)(=O)=O)cc1 [2-A14, N-[2-(4-methanesulfonylphenyl)ethyl]prop-2-enamide] | 93.7%
CCOc1ccc(C=C(C#N)C(=O)Nc2ccncc2)cc1 [8-I22, 2-cyano-3-(4-ethoxyphenyl)-N-(pyridin-4-yl)prop-2-enamide] | 99.3%
CCOc1ccc2nc(NC(=O)CCl)sc2c1 [4-L10, 2-chloro-N-(6-ethoxy-1,3-benzothiazol-2-yl)acetamide] | 0.621%
C=CC(=O)N1CCC(C(=O)NCc2c[nH]cn2)CC1 [2-G10, N-[(1H-imidazol-4-yl)methyl]-1-(prop-2-enoyl)piperidine-4-carboxamide] | 98.7%
C=CC(=O)N1CCOCC1CC(=O)c1ccco1 (centres unmarked) [2-M17, 1-{3-[2-(furan-2-yl)-2-oxoethyl]morpholin-4-yl}prop-2-en-1-one] | 194%
Cc1ccc(S(=O)(=O)NC2CN(C(=O)CCl)C2)cc1 [5-E07, N-[1-(2-chloroacetyl)azetidin-3-yl]-4-methylbenzene-1-sulfonamide] | 0.324%
C=CC(=O)Nc1cccc(S(=O)(=O)C2CCOCC2)c1 [3-M08, N-[3-(oxane-4-sulfonyl)phenyl]prop-2-enamide] | 96.8%
CC(Cl)C(=O)NCCc1ccnn1C (centres unmarked) [7-I21, 2-chloro-N-[2-(1-methyl-1H-pyrazol-5-yl)ethyl]propanamide] | 92.3%
C=CC(=O)N1CCC(F)CC1 [1-D14, 1-(4-fluoropiperidin-1-yl)prop-2-en-1-one] | 69.9%
CC(C)(C)OC(=O)[C@H]1C[C@@H]1C(=O)CCl (racemic) [10-C13, rac-tert-butyl (1R,2R)-2-(2-chloroacetyl)cyclopropane-1-carboxylate] | 1.62%
C=CC(=O)NCC1(c2nc(-c3ccccc3)cs2)CCOCC1 [2-A11, N-{[4-(4-phenyl-1,3-thiazol-2-yl)oxan-4-yl]methyl}prop-2-enamide] | 93.1%
CC(C)n1cc(C2=CCCN(C(=O)CCl)CC2)nn1 [5-F05, 2-chloro-1-{4-[1-(propan-2-yl)-1H-1,2,3-triazol-4-yl]-2,3,6,7-tetrahydro-1H-azepin-1-yl}ethan-1-one] | 1.75%
COCCNC(=O)C(C#N)=Cc1c(Cl)cccc1Cl [8-O13, 2-cyano-3-(2,6-dichlorophenyl)-N-(2-methoxyethyl)prop-2-enamide] | 55.9%
C=CCNC(=O)C(C#N)=Cc1ccc(-c2ccc(F)cc2)s1 [9-C12, 2-cyano-3-[5-(4-fluorophenyl)thiophen-2-yl]-N-(prop-2-en-1-yl)prop-2-enamide] | 111%
C=CC(=O)NCc1ccc2oc(=O)[nH]c2c1 [3-D14, N-[(2-oxo-2,3-dihydro-1,3-benzoxazol-5-yl)methyl]prop-2-enamide] | 103%

Compound | viability at 48 h, 25 µM
CN(C)C1=NC(N)=NC(=C(C#N)C(=O)CCl)N1 [10-P20, 2-[4-amino-6-(dimethylamino)-1,2-dihydro-1,3,5-triazin-2-ylidene]-4-chloro-3-oxobutanenitrile] | 104%
C=CC(=O)NCCC(=O)N1CCCC1c1cc(C)on1 (centres unmarked) [2-C12, N-{3-[2-(5-methyl-1,2-oxazol-3-yl)pyrrolidin-1-yl]-3-oxopropyl}prop-2-enamide] | 81.3%
Cc1cc(-n2c(C)cc(C(=O)CCl)c2C)no1 [10-C18, 2-chloro-1-[2,5-dimethyl-1-(5-methyl-1,2-oxazol-3-yl)-1H-pyrrol-3-yl]ethan-1-one] | 0.308%
CC(Cl)C(=O)NC(CC1CCCCC1)c1ncccn1 (centres unmarked) [7-H13, 2-chloro-N-[2-cyclohexyl-1-(pyrimidin-2-yl)ethyl]propanamide] | 91.2%
CC(Cl)C(=O)Nc1ncc(C(F)(F)F)cc1Cl (centres unmarked) [5-L22, 2-chloro-N-[3-chloro-5-(trifluoromethyl)pyridin-2-yl]propanamide] | 105%
COc1ccc(N2C(=O)C=CC2=O)c([N+](=O)[O-])c1 [10-L11, 1-(4-methoxy-2-nitrophenyl)-2,5-dihydro-1H-pyrrole-2,5-dione] | 100%
COc1ccc(C=C(C#N)C(=O)NC(C)c2ccccc2)cc1O (centres unmarked) [8-J18, 2-cyano-3-(3-hydroxy-4-methoxyphenyl)-N-(1-phenylethyl)prop-2-enamide] | 93.3%
COc1cc(S(=O)(=O)N2CCOCC2)ccc1NC(=O)CCl [6-L12, 2-chloro-N-[2-methoxy-4-(morpholine-4-sulfonyl)phenyl]acetamide] | 0.942%
CCCc1ccc(NC(=O)CCl)cc1 [6-I22, 2-chloro-N-(4-propylphenyl)acetamide] | 0.417%
Cc1ccc(C=C(C#N)C(=O)NC2CCCCC2)cc1C [8-G10, 2-cyano-N-cyclohexyl-3-(3,4-dimethylphenyl)prop-2-enamide] | 59.4%
CC1CCCCC1NC(=O)CCl (centres unmarked) [6-C10, 2-chloro-N-(2-methylcyclohexyl)acetamide] | 93.3%
N#CC(=Cc1cccs1)C(=O)Nc1ccc(F)cc1 [8-F10, 2-cyano-N-(4-fluorophenyl)-3-(thiophen-2-yl)prop-2-enamide] | 102%
COc1ccccc1NC(=O)C(C#N)=Cc1sccc1C [9-P19, 2-cyano-N-(2-methoxyphenyl)-3-(3-methylthiophen-2-yl)prop-2-enamide] | 133%
Cc1cccc(NC(=O)C(C#N)=Cc2cc(C)n(C3CC3)c2C)c1 [9-D17, 2-cyano-3-(1-cyclopropyl-2,5-dimethyl-1H-pyrrol-3-yl)-N-(3-methylphenyl)prop-2-enamide] | 94.3%
C=CC(=O)Nc1cnoc1C(C)C [3-L10, N-[5-(propan-2-yl)-1,2-oxazol-4-yl]prop-2-enamide] | 92.6%
N#CC(=Cc1ccncc1)C(=O)Nc1ccccc1Cl [8-N17, N-(2-chlorophenyl)-2-cyano-3-(pyridin-4-yl)prop-2-enamide] | 112%
CN1C(=C(C#N)C(=O)CCl)Sc2ccccc21 [10-G08, 4-chloro-2-(3-methyl-2,3-dihydro-1,3-benzothiazol-2-ylidene)-3-oxobutanenitrile] | 77.5%
COc1ccc(Cl)cc1CNC(=O)CCl [6-A16, 2-chloro-N-[(5-chloro-2-methoxyphenyl)methyl]acetamide] | 0.564%
O=C(CCl)NCCc1nc2ccccc2s1 [6-K20, N-[2-(1,3-benzothiazol-2-yl)ethyl]-2-chloroacetamide] | 98%
